Data: patent publication US20250302720A1, “PEPTIDE-BASED HAIR TREATMENT” (Sederma, priority 2020, published 2025)
Residues, ends and D or L forms follow the SMILES beside them.

Assays:
[1] = system: Normal human melanocytes (NHM); assay: Reduction of the ROS quantity in NHM (DCFH-DA probe, with or without H2O2 stress); assay type: cell-based; settings: for ROS quantity, variation: 24 h, vs control, n = 3
Experimental: Normal human melanocytes (NHM) almost at confluence are brought into contact with the peptide according to the invention for 24 hours. At the end of this contact, the cells are contacted with a DCFH-DA probe which is inserted into these cells. After rinsing to remove the excess probe, the cells are placed in contact with H2O2 to mimic oxidative stress. A case without oxidative stress is also realized. The reaction of H2O2 with the probe in the cell is measured by fluorescence. An estimate of the quantity of cells is carried out in parallel to harmonize the results.

[2] = system: melanocyte dendrites (NHM); assay: Length of melanocyte dendrites (antibody labelling, image analysis); assay type: cell-based, human; settings: 48 hours, vs control, n = 3
Experimental: The cells are brought into contact with the peptide according to the invention for 48 hours. Then the melanocyte layers, once rinsed, are labeled using an antibody. The area occupied by the dendrites are obtain by image analysis on the photos taken, a parameter converted into the relative dendrite length/100 cells. At the same time, the cell nuclei are counterstained using Hoescht 33258 fluorescent dye to estimate the cell number and to harmonize the data.

CREB = assay: Expression of melanogenesis genes in NHM (qRTPCR): CREB; assay type: cell-based, human; settings: 72 h, vs control, n = 4
Experimental: (§1) NHM are cultivated and brought into contact with the peptide according to the invention or its solvent. At the end of 72 h of contact, the melanocytes are crushed, and the mRNAs are recovered, converted into cDNA which are analyzed by qRTPCR, to estimate the changes in the expression level of the mRNAs. The expression of the following genes has been studied: MITF, TYRP1 and CREB.

MITF [3] = assay: Expression of melanogenesis genes in NHM (qRTPCR): MITF; assay type: cell-based, human; settings: 72 h, vs control, n = 4
Experimental: as §1

[4] = system: Normal human keratinocytes (NHK); assay: Microbead (melanosome mimic) phagocytosis by keratinocytes; assay type: cell-based; settings: 24 hours then microbeads 3 hours, vs control
Experimental: Normal human keratinocytes (NHK) are seeded and cultured until a mat of confluent cells is obtained. The cells are brought into contact with the peptide according to the invention for 24 hours and a solution of fluorescent microbeads mimicking the melanosomes of the melanocyte is added for 3 hours. The beads are phagocytosed (ingested) by the keratinocytes and quantified, after rinsing, by image analysis. In parallel, the cell nuclei are counterstained using the Hoescht33258 fluorescent dye to estimate the cell quantity and to harmonize the data.

[5] = system: reduced glutathione (GSH); assay: Reduced glutathione of the NHM (fluorescent probe); assay type: cell-based, human; settings: 24 h, vs control
Experimental: NHM almost at confluence are brought into contact with the peptide according to the invention for 24 hours. After this contact, the cells are broken in an extraction buffer that preserves glutathione. The amount of GSH is determined by a specific fluorescent probe.

MITF [6] = assay: MITF labelling by immunohistology in isolated hair follicles; assay type: cell-based, human; settings: 10 ppm, 8 days; decreases in the control case
Experimental: Follicles comprising their bulb with little pigment and isolated from a scalp plasty (resulting from cosmetic surgery— donor, dark blond; person) are placed individually in the wells of a culture plate containing the culture medium and maintained for survival (37° C.; 5% CO2).
Twelve follicles are reserved for T0 to serve as a reference for visual estimation and quantification of pigmentation but also for subsequent labeling of MC1R and MITF by immunohistology (six follicles for each marker).
Twelve follicles are placed in contact with the peptide according to the invention at 10 ppm in its solvent and twelve others in contact with the solvent alone for 8 days (0.1% DMSO in culture medium). At 8 days, all the follicles are stopped and fixed, then sectioned (7 μm) and marked with alunated carmine and photographed under a microscope. Sections of 6 of them (for each group) are used for visual and quantitative assessment by image analysis of their pigmentation (with specific filter to measure melanin). Sections of the other 6 are used for MC1R and MITF scoring, which is to be assessed by visual estimation.

[7] = system: Normal human skin melanocytes (NHM); assay: Melanin production by NHM after 10 days; assay type: cell-based; settings: vs control, n = 4
Experimental: Normal human skin melanocytes (NHM), little or moderately melanin producing are used. These cells are cultured and brought into contact for 10 days with the peptide according to the invention at different concentrations or with its solvent in equivalent concentration (control). Culture media are changed every 2-3 days. After this contact, the cell mats are crushed, and the melanin is extracted from the cells. The melanin quantity is evaluated spectrophotometrically at 490 nm, using a standard range previously established from a melanin solution. Protein assay using the Bicinchoninic Acid (BCA) method is used to estimate the cell quantity to homogenize the obtained data.

[8] = In-vivo tolerance: adverse effects reported by the volunteers; set-up: species or system human
Experimental: The in-vivo tests were carried out by applying the hair lotion described above in point 1) in the Galenic part. This lotion comprises 90 ppm of the peptide of the invention. Four independent studies were conducted with a total of 84 volunteers (average age of the entire panel of selected volunteers was 42 years). All four studies were conducted over a wide range of geographical locations, times, seasons, application sites, phototypes and methods. The details are specified in the below table.

tyrosinase = assay: Tyrosinase (dopa-oxidase) activity extracted from NHM after 10 days; assay type: cell-based, human; settings: vs control, n = 4
Experimental: The same culture and contact protocol as above are used with the melanocytes of two different donors with regard to their production of melanin (moderately and poorly pigmented).
After contact, the tyrosinase was extracted from the cells and its dopa-oxidase activity is assessed using the substrate L-DOPA at 37° C. The absorbance due to the production of Dopaquinone is measured at 490 nm and converted to activity units using a preset range. A protein assay using the Bicinchoninic Acid (BCA) method is used to estimate cell quantity and thus to homogenize the obtained data.

[9] = 5 ppm, poorly pigmented (§§) NHM
[10] = 10 ppm, moderately pigmented (§) NHM
[11] = 10 ppm, poorly pigmented (§§) NHM

Compound: CCCCCCCCCCCCCCCC(=O)N1CCC[C@H]1C(=O)N1CCC[C@H]1C(=O)O [Pal-PP-OH, palmitoyl-prolyl-proline] (HELM PEPTIDE1{[CCCCCCCCCCCCCCCC(=O)[*:2]].P.P}$$$$V2.0)
- ROS quantity, variation ([1]; 10 ppm, after the H2O2 stress): −25%; p < 0.01
- ROS quantity, variation ([1]; 10 ppm, without H2O2 stress (basal state)): −23%; p < 0.01
- ROS quantity, variation ([1]; 12.5 ppm, after the H2O2 stress): −33%; p < 0.01
- ROS quantity, variation ([1]; 12.5 ppm, without H2O2 stress (basal state)): −24%; p < 0.01
- reduction of the production of intracellular peroxide ([1]; during oxidative stress, vs. control): 33%
- Lenght of the dendrites, Variation (%) ([2]; 5 ppm): +20%; p < 0.01
- Lenght of the dendrites, Variation (%) ([2]; 10 ppm): +33%; p < 0.01
- Lenght of the dendrites, Variation (%) ([2]; 15 ppm): +57%; p < 0.01
- variation in the expression of CREB gene (CREB; 10 ppm): +46%; p < 0.01
- variation in the expression of CREB gene (CREB; 12.5 ppm): +56%; p < 0.01
- variation in the expression of MITF gene (MITF [3]; 10 ppm): +39%; p < 0.01
- variation in the expression of MITF gene (MITF [3]; 12.5 ppm): +42%; p < 0.01
- Number of microbeads per image analysis, Variation (%) ([4]; 5 ppm, n = 3): +50%; p < 0.05
- Number of microbeads per image analysis, Variation (%) ([4]; 10 ppm, n = 3): +283%; p < 0.01
- Number of microbeads per image analysis, Variation (%) ([4]; 10 ppm, n = 3, listed as peptide according to the invention): +283%
- Reduced glutathione concentration, Variation (%) ([5]; 10 ppm, n = 6): +28%; p < 0.05
- Reduced glutathione concentration, Variation (%) ([5]; 12.5 ppm, n = 6): +38%; p < 0.01
- Reduced glutathione concentration, Variation (%) ([5]; 12.5 ppm, n = 6, listed as peptide of the invention): +38%
- MITF in the bulb, visual estimation compared to T0 (MITF [6]): increased
- Melanin concentration, Variation (%) ([7]; 5 ppm, moderately pigmented (§) NHM): +48%; p < 0.01
- Melanin concentration, Variation (%) [7, 9]: +4%; nsd
- Melanin concentration, Variation (%) [7, 10]: +123%; p < 0.01
- Melanin concentration, Variation (%) [7, 11]: +81%; p < 0.01
- Melanin concentration, Variation (%) ([7]; 12.5 ppm, moderately pigmented (§) NHM): +223%; p < 0.01
- Melanin concentration, Variation (%) ([7]; 12.5 ppm, poorly pigmented (§§) NHM): +113%; p < 0.01
- negative feedbacks ([8]; 3 months after the last application): no negative feedbacks
- adverse effects ([8]; lotion 90 ppm, at 3 or 4 months): No adverse effects were reported
- Tyrosinase activity, Variation (%) (tyrosinase; [9]): +15%; p < 0.05
- Tyrosinase activity, Variation (%) (tyrosinase; 7 ppm, moderately pigmented (§) NHM): +14%; p < 0.01
- Tyrosinase activity, Variation (%) (tyrosinase; [10]): +27%; p < 0.01
- Tyrosinase activity, Variation (%) (tyrosinase; [11]): +74%; p < 0.01
